Data reported in patent US5302514A, “Maltooligoside derivative, reagent for determining α-amylase activity containing the same as effective ingredient and a process for determining the α-amylase activity using same” (Kikkoman Corporation, priority 1991, dated 1994).

Assays:
Assay type in all cases: biochemical
[1] = biological target: T1, amylase derived from human pancreatic juice (human P type α-amylase) (Homo sapiens, UniProt P04746); assay: Km value, P type α-amylase; settings: pH 7.0, 37° C., Lineweaver-Burk
T1 sequence (P04746 16-511): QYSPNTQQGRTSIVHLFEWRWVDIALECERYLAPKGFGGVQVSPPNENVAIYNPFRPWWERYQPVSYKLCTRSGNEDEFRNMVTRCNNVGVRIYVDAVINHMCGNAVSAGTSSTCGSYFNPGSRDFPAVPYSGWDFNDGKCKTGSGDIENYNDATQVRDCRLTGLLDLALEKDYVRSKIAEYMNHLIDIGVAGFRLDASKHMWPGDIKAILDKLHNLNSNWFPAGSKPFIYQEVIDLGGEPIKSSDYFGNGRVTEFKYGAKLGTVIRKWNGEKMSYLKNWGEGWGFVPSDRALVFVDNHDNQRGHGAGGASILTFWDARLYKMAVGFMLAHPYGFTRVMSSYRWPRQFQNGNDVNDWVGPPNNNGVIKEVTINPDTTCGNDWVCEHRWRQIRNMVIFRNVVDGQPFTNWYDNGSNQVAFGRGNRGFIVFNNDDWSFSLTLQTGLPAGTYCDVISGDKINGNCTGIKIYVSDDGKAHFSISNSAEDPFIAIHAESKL
Description: (§1) Km values, hydrolysis rate, water solubility and the patterns of action in the hydrolysis of the present substrates 2-chloro-4-nitrophenyl 5^5 -eno-4^5 -O-mesyl-β-D-maltopentaoside (EMG5CNP) and 2-chloro-4-nitrophenyl 6^5 -azido-6^5 -deoxy- β-D-maltopentaoside (ADG5CNP) obtained in Example were examined in accordance with the following methods.
(§2) Substrate solutions were prepared by dissolving in a 50 mM phosphate buffer (pH=7.0) containing 40 mM NaCl and 2 mM MgCl2 a substrate to 0.16, 0.32, 0.48, 0.64, 0.80 and 0.96 mM, respectively.
(§3) The Km value of each substrate solution was obtained by measuring the hydrolysis rate of the substrate in accordance with the same procedure as in the measurement of hydrolysis rate described below and roughly calculating the Lineweaver-Burk's reciprocal plot (see "Tanpaku-Kohso no Jikken-hou", ed. Takeichi Horio & Jinpei Yamashita, Nanko-do, 1981).
(§4) Each substrate was dissolved in a 50 mM phosphate buffer (pH=7.0) containing 40 mM NaCl and 2 mM MgCl2 to make three substrate solutions in a concentration of 0.8-1.6 times and three substrate solutions in a concentration of 1.6-3.2 times per the roughly calculated Km value in the aforementioned paragraph (ii).
(§5) The Km value was calculated in accordance with the same procedure as in the aforementioned paragraph (ii).
P: amylase derived from human pancreatic juice, […]

[2] = test system: human α-amylase (P:S=1:1); assay: α-Amylase hydrolysis (increase in absorbance at 400 nm with coupled enzymes); settings: for Increase in absorbance for 2 minutes (corrected by the 0 IU/l of α-amylase activity): substrate solution 3.00 mM, 400 nm, 37° C., pH 7.0; for hydrolysis by α-amylase (in words): as understood from Tables 1 and 2
Description: Coupled enzyme solution was prepared by dissolving a commercially available α-glucosidase derived from yeast and a commercially available β-glucosidase derived from almond in a 50 mM phosphate buffer (pH=7.0) containing 40 mM NaCl and 2 mM MgCl2 to a concentration of 117 units/ml and 13 units/ml, respectively. As the commercially available α- and β-glucosidases, those available from Toyobo Co., Ltd. were used.
Standard α-amylase solutions were prepared by dissolving a commercially available human α-amylase (P:S=1:1) in purified water to a concentration of 0, 148, 284, 401 and 525 IU/l, respectively. As the commercially available human α-amylase, Calibzyme.AMY manufactured by International Reagents Corp. was employed. As for the activity of α-amylase, an amount of the enzyme which decomposes 1μ mol of (a commercially available) 2-chloro-4-nitrophenyl β-D-maltopentaoside at 37° C. for one minute was defined as 1 international unit (IU).
The substrate solution (a) was prepared by dissolving 2-chloro-4-nitorphenyl 6^5 -azido-6^5 -deoxy-β-D-maltopentaoside (referred to hereinafter as the substrate of the present invention) obtained in Example 3 in a 50 mM phosphate buffer (pH=7.0) containing 40 mM NaCl and 2 mM MgCl2 to a concentration of 3.00 mM.
The substrate solution (b) was prepared by dissolving 2-chloro-4-nitrophenyl 6^3 -azido-6^3 -deoxy-β-D-maltotrioside (referred to hereinafter as the reference substrate) obtained in the step (1) in a 50 mM phosphate buffer (pH=7.0) containing 40 mM NaCl and 2 mM MgCl2 to a concentration of 3.00 mM.
A coupled enzyme solution was prepared in the same manner as in the step (2) of Example 5.
α-amylase solutions were prepared in the same manner as in the step (3) of Example 5 by dissolving a commercially available human α-amylase (P:S=1:1) in purified water to a concentration of 0, 250 and 500 IU/l, respectively.
The coupled enzyme solution in an amount of 1.0 ml was added with stirring to 250 μl of the α-amylase solution, and the mixture was heated at 37° C. for one minute. Each of the substrate solution in an amount of 2.0 ml was added with stirring to the mixture, and the mixture was heated at 37° C. for 2 minutes before measuring the variation of the absorbance at 400 nm for 2 minutes.
2-chloro-4-nitrophenyl 5^5 -eno-4^5 -O-mesyl-β-D-maltopentaoside (referred to hereinafter as substrate of the present invention) obtained in Example 1 was dissolved in a 50 mM phosphate buffer (pH=7.0) containing 40 mM NaCl and 2 mM MgCl2 to a concentration of 3.00 mM.
2-chloro-4-nitrophenyl 5^3 -eno-4^3 -O-mesyl-β-D-maltotrioside(referred to hereinafter as reference substrate) obtained in the previous step (1) was dissolved in a 50 mM phosphate buffer (pH=7.0) containing 40 mM NaCl an 2 mM MgCl2 to a concentration of 3.00 mM.
α-amylase solutions were prepared in the same manner as in the step (5) of Example 7.
The variations of absorbance were measured in the same manner as in the step (6) of Example 7.

[3] = biological target: T2, amylase derived from human saliva (human S type α-amylase) (Homo sapiens, UniProt P0DUB6); assay: Km value, S type α-amylase; settings: pH 7.0, 37° C., Lineweaver-Burk
T2 sequence (P0DUB6 16-511): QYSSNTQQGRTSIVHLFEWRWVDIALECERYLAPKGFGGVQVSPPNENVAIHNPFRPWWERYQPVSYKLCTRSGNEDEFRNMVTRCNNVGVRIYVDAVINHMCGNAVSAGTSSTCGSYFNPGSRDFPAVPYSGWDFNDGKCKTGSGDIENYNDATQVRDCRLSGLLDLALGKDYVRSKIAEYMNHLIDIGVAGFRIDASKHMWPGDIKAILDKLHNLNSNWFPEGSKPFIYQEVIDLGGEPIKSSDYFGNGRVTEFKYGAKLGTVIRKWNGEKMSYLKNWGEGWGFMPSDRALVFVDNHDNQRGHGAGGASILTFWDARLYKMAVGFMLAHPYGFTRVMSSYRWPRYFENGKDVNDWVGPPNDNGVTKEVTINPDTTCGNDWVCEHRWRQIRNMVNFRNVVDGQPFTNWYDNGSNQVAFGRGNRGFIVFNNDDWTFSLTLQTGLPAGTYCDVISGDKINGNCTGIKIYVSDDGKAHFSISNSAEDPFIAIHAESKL
Description: as §1, §2, §3, §4, §5
S: amylase derived from human saliva.

Km [1] [µM]	Increase in absorbance for 2 minutes (corrected by the 0 IU/l of α-amylase activity) ([2]; Table 1, α-amylase activity 250 IU/l)	Increase in absorbance for 2 minutes (corrected by the 0 IU/l of α-amylase activity) ([2]; Table 1, α-amylase activity 500 IU/l)	hydrolysis by α-amylase (in words) [2]	Km [3] [µM]	Increase in absorbance for 2 minutes (corrected by the 0 IU/l of α-amylase activity) ([2]; Table 2, α-amylase activity 250 IU/l)	Increase in absorbance for 2 minutes (corrected by the 0 IU/l of α-amylase activity) ([2]; Table 2, α-amylase activity 500 IU/l)	SMILES
170	0.058	0.118	hydrolyzed satisfactorily	260			[N-]=[N+]=NC[C@H]1O[C@H](O[C@H]2[C@H](O)[C@@H](O)[C@@H](O[C@H]3[C@H](O)[C@@H](O)[C@@H](O[C@H]4[C@H](O)[C@@H](O)[C@@H](O[C@H]5[C@H](O)[C@@H](O)[C@H](Oc6ccc([N+](=O)[O-])cc6Cl)O[C@@H]5CO)O[C@@H]4CO)O[C@@H]3CO)O[C@@H]2CO)[C@H](O)[C@@H](O)[C@@H]1O [ADG5CNP, 2-chloro-4-nitrophenyl 6^5-azido-6^5-deoxy-β-D-maltopentaoside]
130			hydrolyzed extremely smoothly	140	0.057	0.116	C=C1O[C@H](O[C@H]2[C@H](O)[C@@H](O)[C@@H](O[C@H]3[C@H](O)[C@@H](O)[C@@H](O[C@H]4[C@H](O)[C@@H](O)[C@@H](O[C@H]5[C@H](O)[C@@H](O)[C@H](Oc6ccc([N+](=O)[O-])cc6Cl)O[C@@H]5CO)O[C@@H]4CO)O[C@@H]3CO)O[C@@H]2CO)[C@H](O)[C@@H](O)[C@@H]1OS(C)(=O)=O [EMG5CNP, 2-chloro-4-nitrophenyl 5^5-eno-4^5 -O-mesyl-β-D-maltopentaoside]
